The values below come from patent US11434221B2, “Pyrazine-4-carbamate or -urea derivatives as herbicides” (Syngenta Participations AG, priority 2017, dated 2022).

The subject of one test is Alopecurus myosuroides (ALOMY). The test is described as follows: Pre-emergence herbicidal activity, glasshouse pot test. The format is in vivo. Set-up: key: 5=total damage to plant; 0=no damage to plant. As to conditions: Rate 1000 g/ha; sprayed one day after sowing; evaluated after 13 days. On the procedure:
(§1) Seeds of a variety of test species were sown in standard soil in pots: Triticum aestivium (TRZAW), Avena fatua (AVEFA), Alopecurus myosuroides (ALOMY), Echinochloa crus-galli (ECHCG), Lolium perenne (LOLPE), and Setaria faberi (SETFA). After cultivation for one day (pre-emergence) under controlled conditions in a glasshouse (at 24/16° C., day/night; 14 hours light; 65% humidity), the plants were sprayed with an aqueous spray solution derived from the formulation of the technical active ingredient in acetone/water (50:50) solution containing 0.5% Tween 20 (polyoxyethelyene sorbitan monolaurate, CAS RN 9005-64-5). The test plants were then grown in a glasshouse under controlled conditions (at 24/16° C., day/night; 14 hours light; 65% humidity) and watered twice daily. After 13 days, the test was evaluated (5=total damage to plant; 0=no damage to plant).
Turning to `CCc1nc(-c2cncc(F)c2)cnc1N(C(=O)OC(C)(C)C)C(=O)OC(C)(C)C` [Compound H21], the “Control of weed species after pre-emergence application, ALOMY (damage score 0-5)” value was determined as 0.

Take `CC(C)(C)OC(=O)Nc1ncc(-c2cncc(F)c2)nc1CO` [Compound H22]: the “Control of weed species after pre-emergence application, ALOMY (damage score 0-5)” value is reported as 0.

Take `Cc1nc(-c2cncnc2)cnc1NC(=O)OC(C)(C)C` [Compound H23]: the “Control of weed species after pre-emergence application, ALOMY (damage score 0-5)” value was 0.

With `CSc1nc(-c2cncc(F)c2)cnc1NC(=O)OC(C)(C)C` [Compound H24], the “Control of weed species after pre-emergence application, ALOMY (damage score 0-5)” value is 0.

The next test has as its system Avena fatua (AVEFA). Described as above. Type of test: in vivo. Set-up: key: 5=total damage to plant; 0=no damage to plant. As to conditions: Rate 1000 g/ha; sprayed one day after sowing; evaluated after 13 days. On the procedure:
as §1
Regarding `CCc1nc(-c2cncc(F)c2)cnc1N(C(=O)OC(C)(C)C)C(=O)OC(C)(C)C` [Compound H21], the “Control of weed species after pre-emergence application, AVEFA (damage score 0-5)” value worked out at 2.

Consider `CC(C)(C)OC(=O)Nc1ncc(-c2cncc(F)c2)nc1CO` [Compound H22], for which the “Control of weed species after pre-emergence application, AVEFA (damage score 0-5)” value was determined as 0.

For `Cc1nc(-c2cncnc2)cnc1NC(=O)OC(C)(C)C` [Compound H23], the “Control of weed species after pre-emergence application, AVEFA (damage score 0-5)” value turned out to be 1.

As to `CSc1nc(-c2cncc(F)c2)cnc1NC(=O)OC(C)(C)C` [Compound H24], the “Control of weed species after pre-emergence application, AVEFA (damage score 0-5)” value was 2.

The subject of a further test is Echinochloa crus-galli (ECHCG). The description is as above. The format is in vivo. The arrangement: key: 5=total damage to plant; 0=no damage to plant. As to conditions: Rate 1000 g/ha; sprayed one day after sowing; evaluated after 13 days. On the procedure: as §1
For the molecule `CCc1nc(-c2cncc(F)c2)cnc1N(C(=O)OC(C)(C)C)C(=O)OC(C)(C)C` [Compound H21], the “Control of weed species after pre-emergence application, ECHCG (damage score 0-5)” value was determined as 1.

In the case of `CC(C)(C)OC(=O)Nc1ncc(-c2cncc(F)c2)nc1CO` [Compound H22], the “Control of weed species after pre-emergence application, ECHCG (damage score 0-5)” value worked out at 0.

Consider `Cc1nc(-c2cncnc2)cnc1NC(=O)OC(C)(C)C` [Compound H23], for which the “Control of weed species after pre-emergence application, ECHCG (damage score 0-5)” value came out at 2.

As to `CSc1nc(-c2cncc(F)c2)cnc1NC(=O)OC(C)(C)C` [Compound H24], the “Control of weed species after pre-emergence application, ECHCG (damage score 0-5)” value is on record as 2.

A further test concerns Lolium perenne (LOLPE). Described as above. The format is in vivo. Set-up: key: 5=total damage to plant; 0=no damage to plant. As to conditions: Rate 1000 g/ha; sprayed one day after sowing; evaluated after 13 days. On the procedure:
as §1
`CCc1nc(-c2cncc(F)c2)cnc1N(C(=O)OC(C)(C)C)C(=O)OC(C)(C)C` [Compound H21]: the “Control of weed species after pre-emergence application, LOLPE (damage score 0-5)” value is 5.

Regarding `CC(C)(C)OC(=O)Nc1ncc(-c2cncc(F)c2)nc1CO` [Compound H22], the “Control of weed species after pre-emergence application, LOLPE (damage score 0-5)” value was found to be 0.

As for `Cc1nc(-c2cncnc2)cnc1NC(=O)OC(C)(C)C` [Compound H23], the “Control of weed species after pre-emergence application, LOLPE (damage score 0-5)” value stood at 0.

For `CSc1nc(-c2cncc(F)c2)cnc1NC(=O)OC(C)(C)C` [Compound H24], the “Control of weed species after pre-emergence application, LOLPE (damage score 0-5)” value was found to be 1.

The next test has as its system Setaria faberi (SETFA). The description is as above. The format is in vivo. The arrangement: key: 5=total damage to plant; 0=no damage to plant. As to conditions: Rate 1000 g/ha; sprayed one day after sowing; evaluated after 13 days. Here is the method: as §1
Regarding `CCc1nc(-c2cncc(F)c2)cnc1N(C(=O)OC(C)(C)C)C(=O)OC(C)(C)C` [Compound H21], the “Control of weed species after pre-emergence application, SETFA (damage score 0-5)” value is reported as 5.

In the case of `CC(C)(C)OC(=O)Nc1ncc(-c2cncc(F)c2)nc1CO` [Compound H22], the “Control of weed species after pre-emergence application, SETFA (damage score 0-5)” value is given as 0.

Turning to `Cc1nc(-c2cncnc2)cnc1NC(=O)OC(C)(C)C` [Compound H23], the “Control of weed species after pre-emergence application, SETFA (damage score 0-5)” value turned out to be 4.

`CSc1nc(-c2cncc(F)c2)cnc1NC(=O)OC(C)(C)C` [Compound H24]: the “Control of weed species after pre-emergence application, SETFA (damage score 0-5)” value is given as 5.

A further test relates to Triticum aestivium (TRZAW). Described as above. The format is in vivo. The arrangement: key: 5=total damage to plant; 0=no damage to plant. As to conditions: Rate 1000 g/ha; sprayed one day after sowing; evaluated after 13 days. On the procedure:
as §1
As for `CCc1nc(-c2cncc(F)c2)cnc1N(C(=O)OC(C)(C)C)C(=O)OC(C)(C)C` [Compound H21], the “Control of weed species after pre-emergence application, TRAZW (damage score 0-5)” value was determined as 0.

As for `CC(C)(C)OC(=O)Nc1ncc(-c2cncc(F)c2)nc1CO` [Compound H22], the “Control of weed species after pre-emergence application, TRAZW (damage score 0-5)” value is recorded as 0.

As for `Cc1nc(-c2cncnc2)cnc1NC(=O)OC(C)(C)C` [Compound H23], the “Control of weed species after pre-emergence application, TRAZW (damage score 0-5)” value was 0.

For `CSc1nc(-c2cncc(F)c2)cnc1NC(=O)OC(C)(C)C` [Compound H24], the “Control of weed species after pre-emergence application, TRAZW (damage score 0-5)” value is 0.

The next test deals with Alopecurus myosuroides (ALOMY). The test is described as follows: Post-emergence herbicidal activity, glasshouse pot test. Type of test: in vivo. Set-up: key: 5=total damage to plant; 0=no damage to plant. As to conditions: Rate 1000 g/ha; sprayed after 8 days cultivation; evaluated after 13 days. On the procedure:
(§2) Seeds of a variety of test species were sown in standard soil in pots: Triticum aestivium (TRZAW), Avena fatua (AVEFA), Alopecurus myosuroides (ALOMY), Echinochloa crus-galli (ECHCG), Lolium perenne (LOLPE), and Setaria faberi (SETFA). After 8 days cultivation (post-emergence) under controlled conditions in a glasshouse (at 24/16° C., day/night; 14 hours light; 65% humidity), the plants were sprayed with an aqueous spray solution derived from the formulation of the technical active ingredient in acetone/water (50:50) solution containing 0.5% Tween 20 (polyoxyethelyene sorbitan monolaurate, CAS RN 9005-64-5). The test plants were then grown in a glasshouse under controlled conditions (at 24/16° C., day/night; 14 hours light; 65% humidity) and watered twice daily. After 13 days, the test was evaluated (5=total damage to plant; 0=no damage to plant).
For `CCc1nc(-c2cncc(F)c2)cnc1N(C(=O)OC(C)(C)C)C(=O)OC(C)(C)C` [Compound H21], the “Control of weed species after post-emergence application, ALOMY (damage score 0-5)” value was found to be 1.

Regarding `CC(C)(C)OC(=O)Nc1ncc(-c2cncc(F)c2)nc1CO` [Compound H22], the “Control of weed species after post-emergence application, ALOMY (damage score 0-5)” value is reported as 0.

Regarding `Cc1nc(-c2cncnc2)cnc1NC(=O)OC(C)(C)C` [Compound H23], the “Control of weed species after post-emergence application, ALOMY (damage score 0-5)” value was found to be 1.

On to `CSc1nc(-c2cncc(F)c2)cnc1NC(=O)OC(C)(C)C` [Compound H24], for which the “Control of weed species after post-emergence application, ALOMY (damage score 0-5)” value turned out to be 0.

The test system of the next test is Avena fatua (AVEFA). The test is described as above. The arrangement: key: 5=total damage to plant; 0=no damage to plant. As to conditions: Rate 1000 g/ha; sprayed after 8 days cultivation; evaluated after 13 days. The format is in vivo. On the procedure:
as §2
Take `CCc1nc(-c2cncc(F)c2)cnc1N(C(=O)OC(C)(C)C)C(=O)OC(C)(C)C` [Compound H21]: the “Control of weed species after post-emergence application, AVEFA (damage score 0-5)” value is on record as 4.

In the case of `CC(C)(C)OC(=O)Nc1ncc(-c2cncc(F)c2)nc1CO` [Compound H22], the “Control of weed species after post-emergence application, AVEFA (damage score 0-5)” value was 1.

As to `Cc1nc(-c2cncnc2)cnc1NC(=O)OC(C)(C)C` [Compound H23], the “Control of weed species after post-emergence application, AVEFA (damage score 0-5)” value is given as 3.

Turning to `CSc1nc(-c2cncc(F)c2)cnc1NC(=O)OC(C)(C)C` [Compound H24], the “Control of weed species after post-emergence application, AVEFA (damage score 0-5)” value worked out at 3.

The subject of a further test is Echinochloa crus-galli (ECHCG). Described as above. Type of test: in vivo. As to conditions: Rate 1000 g/ha; sprayed after 8 days cultivation; evaluated after 13 days. Set-up: key: 5=total damage to plant; 0=no damage to plant. Here is the method: as §2
Regarding `CCc1nc(-c2cncc(F)c2)cnc1N(C(=O)OC(C)(C)C)C(=O)OC(C)(C)C` [Compound H21], the “Control of weed species after post-emergence application, ECHCG (damage score 0-5)” value was found to be 4.

Turning to `CC(C)(C)OC(=O)Nc1ncc(-c2cncc(F)c2)nc1CO` [Compound H22], the “Control of weed species after post-emergence application, ECHCG (damage score 0-5)” value is 1.

`Cc1nc(-c2cncnc2)cnc1NC(=O)OC(C)(C)C` [Compound H23]: the “Control of weed species after post-emergence application, ECHCG (damage score 0-5)” value was determined as 4.

In the case of `CSc1nc(-c2cncc(F)c2)cnc1NC(=O)OC(C)(C)C` [Compound H24], the “Control of weed species after post-emergence application, ECHCG (damage score 0-5)” value is listed as 4.

In the next test the test system is Lolium perenne (LOLPE). The description is as above. The format is in vivo. Set-up: key: 5=total damage to plant; 0=no damage to plant. As to conditions: Rate 1000 g/ha; sprayed after 8 days cultivation; evaluated after 13 days. Here is the method: as §2
In the case of `CCc1nc(-c2cncc(F)c2)cnc1N(C(=O)OC(C)(C)C)C(=O)OC(C)(C)C` [Compound H21], the “Control of weed species after post-emergence application, LOLPE (damage score 0-5)” value is on record as 4.

In the case of `CC(C)(C)OC(=O)Nc1ncc(-c2cncc(F)c2)nc1CO` [Compound H22], the “Control of weed species after post-emergence application, LOLPE (damage score 0-5)” value came to 1.

On to `Cc1nc(-c2cncnc2)cnc1NC(=O)OC(C)(C)C` [Compound H23], for which the “Control of weed species after post-emergence application, LOLPE (damage score 0-5)” value worked out at 2.

With `CSc1nc(-c2cncc(F)c2)cnc1NC(=O)OC(C)(C)C` [Compound H24], the “Control of weed species after post-emergence application, LOLPE (damage score 0-5)” value was found to be 2.

For the next test, the system named is Setaria faberi (SETFA). Described as above. The format is in vivo. The arrangement: key: 5=total damage to plant; 0=no damage to plant. As to conditions: Rate 1000 g/ha; sprayed after 8 days cultivation; evaluated after 13 days. On the procedure: as §2
As for `CCc1nc(-c2cncc(F)c2)cnc1N(C(=O)OC(C)(C)C)C(=O)OC(C)(C)C` [Compound H21], the “Control of weed species after post-emergence application, SETFA (damage score 0-5)” value is 5.

Consider `CC(C)(C)OC(=O)Nc1ncc(-c2cncc(F)c2)nc1CO` [Compound H22], for which the “Control of weed species after post-emergence application, SETFA (damage score 0-5)” value came out at 2.

With `Cc1nc(-c2cncnc2)cnc1NC(=O)OC(C)(C)C` [Compound H23], the “Control of weed species after post-emergence application, SETFA (damage score 0-5)” value turned out to be 5.

Take `CSc1nc(-c2cncc(F)c2)cnc1NC(=O)OC(C)(C)C` [Compound H24]: the “Control of weed species after post-emergence application, SETFA (damage score 0-5)” value was found to be 5.

The subject of the next test is Triticum aestivium (TRZAW). Described as above. Type of test: in vivo. The arrangement: key: 5=total damage to plant; 0=no damage to plant. As to conditions: Rate 1000 g/ha; sprayed after 8 days cultivation; evaluated after 13 days. On the procedure:
as §2
Regarding `CCc1nc(-c2cncc(F)c2)cnc1N(C(=O)OC(C)(C)C)C(=O)OC(C)(C)C` [Compound H21], the “Control of weed species after post-emergence application, TRAZW (damage score 0-5)” value was determined as 1.

Consider `CC(C)(C)OC(=O)Nc1ncc(-c2cncc(F)c2)nc1CO` [Compound H22], for which the “Control of weed species after post-emergence application, TRAZW (damage score 0-5)” value stood at 0.

`Cc1nc(-c2cncnc2)cnc1NC(=O)OC(C)(C)C` [Compound H23]: the “Control of weed species after post-emergence application, TRAZW (damage score 0-5)” value worked out at 1.

On to `CSc1nc(-c2cncc(F)c2)cnc1NC(=O)OC(C)(C)C` [Compound H24], for which the “Control of weed species after post-emergence application, TRAZW (damage score 0-5)” value was 0.
